Data published in patent publication US20250073217A1 (priority 2022, published 2025).
Like-named read-outs stand apart in the source and are kept apart here.

Legend:
κ (KOP) = κ (KOP) (Rattus norvegicus, UniProt P34975); format: binding
α2B(h) = biological target: T1, α2B(h) (Homo sapiens, UniProt P18089); format: binding
T1 sequence (P18089 1-450): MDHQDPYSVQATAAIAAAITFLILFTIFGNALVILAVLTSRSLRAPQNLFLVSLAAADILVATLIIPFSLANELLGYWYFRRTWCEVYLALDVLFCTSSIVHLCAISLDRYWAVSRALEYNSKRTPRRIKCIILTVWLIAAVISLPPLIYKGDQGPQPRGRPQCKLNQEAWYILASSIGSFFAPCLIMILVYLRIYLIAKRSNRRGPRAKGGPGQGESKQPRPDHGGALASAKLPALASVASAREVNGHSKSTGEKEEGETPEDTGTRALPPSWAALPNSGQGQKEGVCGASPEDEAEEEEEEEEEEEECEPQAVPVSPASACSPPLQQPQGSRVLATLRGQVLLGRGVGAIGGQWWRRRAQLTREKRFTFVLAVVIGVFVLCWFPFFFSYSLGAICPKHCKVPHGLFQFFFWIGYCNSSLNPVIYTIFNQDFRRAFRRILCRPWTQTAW

μ (MOP) (h) [1] = biological target: T2, μ (MOP) (h) (Homo sapiens, UniProt P35372); format: cell-based
T2 sequence (P35372 whole entry): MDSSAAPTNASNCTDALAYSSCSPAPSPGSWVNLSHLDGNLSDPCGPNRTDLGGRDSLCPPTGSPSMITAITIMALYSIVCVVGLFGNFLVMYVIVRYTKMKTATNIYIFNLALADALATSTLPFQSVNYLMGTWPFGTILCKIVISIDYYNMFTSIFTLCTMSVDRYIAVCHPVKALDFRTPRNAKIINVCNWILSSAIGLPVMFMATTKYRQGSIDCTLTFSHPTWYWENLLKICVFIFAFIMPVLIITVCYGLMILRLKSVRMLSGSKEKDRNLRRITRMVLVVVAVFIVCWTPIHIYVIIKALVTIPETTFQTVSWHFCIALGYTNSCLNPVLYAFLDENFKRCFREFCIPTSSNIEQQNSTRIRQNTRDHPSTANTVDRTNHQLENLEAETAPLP

CD-1 mice [2] = experiment: Mouse Tail Flick Test; format: in vivo; settings: compound 1 10 mg/kg IP, 10 minutes later Morphine 10 mg/kg SC, versus Morphine alone; FIGS. 2A-2C
[3] = tested on: L-DOPA induced dyskinesias; experiment: L-DOPA induced dyskinesias, Primate in vivo model
CYP3A4 [4] = biological target: T3, CYP3A4 (Homo sapiens, UniProt P08684); settings: 0.1 μM-25 μM, human liver microsomes, substrate testosterone
T3 sequence (P08684 whole entry): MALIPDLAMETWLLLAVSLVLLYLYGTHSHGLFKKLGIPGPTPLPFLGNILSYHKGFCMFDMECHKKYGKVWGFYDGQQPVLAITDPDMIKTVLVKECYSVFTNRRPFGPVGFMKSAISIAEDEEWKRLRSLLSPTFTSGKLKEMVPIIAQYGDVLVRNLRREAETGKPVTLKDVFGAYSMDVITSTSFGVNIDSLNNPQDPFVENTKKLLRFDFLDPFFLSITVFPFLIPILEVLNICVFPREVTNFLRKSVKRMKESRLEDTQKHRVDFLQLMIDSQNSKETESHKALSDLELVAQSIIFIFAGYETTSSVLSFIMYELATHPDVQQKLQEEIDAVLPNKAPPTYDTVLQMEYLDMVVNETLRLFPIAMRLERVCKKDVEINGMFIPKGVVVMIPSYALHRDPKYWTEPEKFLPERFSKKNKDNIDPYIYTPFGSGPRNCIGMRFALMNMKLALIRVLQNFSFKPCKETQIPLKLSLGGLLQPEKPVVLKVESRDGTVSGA

CYP1A2 [5] = biological target: CYP1A2 (Homo sapiens, UniProt P05177); settings: 0.1 μM-25 μM, human liver microsomes
Sequence of CYP1A2 (Homo sapiens, UniProt P05177) (P05177 whole entry): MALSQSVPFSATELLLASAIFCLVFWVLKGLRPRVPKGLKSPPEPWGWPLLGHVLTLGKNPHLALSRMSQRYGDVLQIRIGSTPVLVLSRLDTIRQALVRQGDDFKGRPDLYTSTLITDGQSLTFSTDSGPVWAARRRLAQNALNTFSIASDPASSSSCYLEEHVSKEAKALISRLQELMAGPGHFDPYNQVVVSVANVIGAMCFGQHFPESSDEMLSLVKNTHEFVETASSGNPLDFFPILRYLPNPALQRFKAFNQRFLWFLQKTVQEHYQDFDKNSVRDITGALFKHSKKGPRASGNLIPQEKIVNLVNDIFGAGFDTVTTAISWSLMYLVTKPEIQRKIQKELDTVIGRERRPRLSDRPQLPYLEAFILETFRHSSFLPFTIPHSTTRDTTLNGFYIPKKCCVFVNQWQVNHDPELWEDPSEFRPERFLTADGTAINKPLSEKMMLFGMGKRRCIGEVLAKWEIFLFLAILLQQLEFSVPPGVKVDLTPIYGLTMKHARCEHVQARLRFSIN

CYP2B6 [6] = biological target: CYP2B6 (Homo sapiens, UniProt P20813); settings: 0.1 μM-25 μM, human liver microsomes
[7] = Brain Tissue Binding, equilibrium dialysis, rat; settings: brain homogenate
CYP2B6 [8] = settings: human hepatocytes, 72 hr, at 100 μM
CYP3A4 [9] = biological target: T3, CYP3A4; settings: 0.1 μM-25 μM, human liver microsomes, substrate midazolam
MDR1-MDCK cells = experiment: MDR1-MDCK Permeability and Identification of P-gp Substrate (Bi-directional); format: in vitro ADME, canine; settings: for efflux ratio: minus inhibitor (absence of cyclosporin A)
Method: MDR1-MDCK Permeability and Identification of P-gp Substrate (Bi-directional): Madin-Darby canine kidney (MDCK) cells are an epithelial cell line of canine kidney origin. These cells can be stably transfected to express active P-glycoprotein (MDR1-MDCK) and are ideal for studying drug efflux. Test compound was added to either the apical or basolateral side of a confluent monolayer of MDR1-MDCK cells and permeability was measured by monitoring the appearance of the test compound on the opposite side of the monolayer using LC-MS/MS. The efflux ratio (ER) was calculated from the ratio of B-A and A-B permeabilities. Experiments were performed in the absence and presence of a P-glycoprotein (P-gp) inhibitor (cyclosporin A (10 μM)) to determine whether the compound was subject to P-gp mediated efflux.
Experimental Procedure: MDR1-MDCK cells obtained from the NIH (Rockville, MD, USA) were used between passage numbers 6-30. Cells were seeded onto Millipore Multiscreen Transwell plates at 3.4×10^5 cells/cm^2. The cells were cultured in DMEM and media was changed on day 3. On day 4 the permeability study was performed. Cell culture and assay incubations were carried out at 37° C. in an atmosphere of 5% CO2 with a relative humidity of 95%. […]
The dosing solutions were prepared by diluting test compound with assay buffer to give a final test compound concentration of 10 μM (final DMSO concentration of 1% v/v). […] Test compound permeability was measured on two occasions, in the absence and in the presence of a P-gp inhibitor on both sides of the monolayer. […]
For assessment of A-B permeability. […] Test compound permeability was assessed in duplicate. […] Test and control compounds were quantified by LC-MS/MS cassette analysis using an 8-point calibration with appropriate dilution of the samples. […] The starting concentration (C0) was determined from the dosing solution and the experimental recovery calculated from C0 and both apical and basolateral compartment concentrations. […]

[10] = Brain Tissue Binding, equilibrium dialysis, mouse; settings: fraction unbound could not be determined
plasma proteins = experiment: Binding to plasma proteins; format: in vitro ADME
CYP2C9 = CYP2C9 (Homo sapiens, UniProt P11712); experiment: CYP2C9 Inhibition, human liver microsomes, tolbutamide; settings: 0.1 μM-25 μM
Sequence of CYP2C9 (P11712 whole entry): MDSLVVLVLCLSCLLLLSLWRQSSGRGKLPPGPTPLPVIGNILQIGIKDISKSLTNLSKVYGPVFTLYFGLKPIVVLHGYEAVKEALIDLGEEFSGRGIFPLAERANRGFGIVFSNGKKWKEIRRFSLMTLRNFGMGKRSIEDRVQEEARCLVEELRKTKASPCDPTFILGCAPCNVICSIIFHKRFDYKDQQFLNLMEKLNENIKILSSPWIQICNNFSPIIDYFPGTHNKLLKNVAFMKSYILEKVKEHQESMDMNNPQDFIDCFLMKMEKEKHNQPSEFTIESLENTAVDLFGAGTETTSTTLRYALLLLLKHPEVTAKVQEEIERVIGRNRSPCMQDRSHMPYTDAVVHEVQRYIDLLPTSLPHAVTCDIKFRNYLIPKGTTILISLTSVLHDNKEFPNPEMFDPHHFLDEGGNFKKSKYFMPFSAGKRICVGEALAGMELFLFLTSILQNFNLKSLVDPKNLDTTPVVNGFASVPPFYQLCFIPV

CYP2D6 = biological target: T4, CYP2D6 (Homo sapiens, UniProt P10635); experiment: Time Dependent Inhibition of CYP2D6 (Dextromethorphan; IC50 Shift); format: in vitro ADME; settings: for CYP2D6 inhibition: at 25 μM
T4 construct: from tissue
T4 sequence (P10635 whole entry): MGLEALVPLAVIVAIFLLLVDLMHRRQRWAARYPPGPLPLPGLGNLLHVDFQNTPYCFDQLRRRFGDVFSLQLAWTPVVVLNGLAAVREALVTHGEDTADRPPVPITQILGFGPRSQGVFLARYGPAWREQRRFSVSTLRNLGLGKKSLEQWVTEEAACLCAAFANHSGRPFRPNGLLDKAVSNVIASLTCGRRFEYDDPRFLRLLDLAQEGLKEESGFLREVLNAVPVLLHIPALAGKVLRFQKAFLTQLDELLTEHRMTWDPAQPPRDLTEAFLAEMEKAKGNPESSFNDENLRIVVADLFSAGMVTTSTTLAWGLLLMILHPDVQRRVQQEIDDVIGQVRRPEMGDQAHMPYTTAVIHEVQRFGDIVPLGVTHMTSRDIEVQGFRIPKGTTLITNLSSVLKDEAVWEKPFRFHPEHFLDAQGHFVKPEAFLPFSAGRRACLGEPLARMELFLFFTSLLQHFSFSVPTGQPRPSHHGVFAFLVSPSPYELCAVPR
Method: The probe substrate dextromethorphan (5 μM) and NADPH (1 mM) were then added (final DMSO concentration 0.3%) and the samples incubated for 5 min at 37° C. The selective time dependent CYP2D6 inhibitor, paroxetine, was screened alongside the test compounds as a positive control. The reactions were terminated by the addition of an aliquot of the incubation into methanol. The samples were centrifuged at 2500 rpm for 30 min at 4° C., and aliquots of the supernatant are diluted with formic acid in deionised water (final concentration 0.1%) containing internal standard prior to analysis of dextrorphan by LC-MS/MS.

CYP1A2 [11] = settings: human hepatocytes, 72 hr, 0.4-100 μM, any concentration tested
[12] = Bioavailability and Stability; format: in vitro ADME
From the text: Bioavailability and Stability: Compounds of the invention were studied in detail, using several parameters to evaluate bioavailability and stability.

CYP2C8 = CYP2C8 (Homo sapiens, UniProt P10632); experiment: CYP2C8 Inhibition, human liver microsomes, paclitaxel; settings: 0.1 μM-25 μM
Sequence of CYP2C8 (P10632 whole entry): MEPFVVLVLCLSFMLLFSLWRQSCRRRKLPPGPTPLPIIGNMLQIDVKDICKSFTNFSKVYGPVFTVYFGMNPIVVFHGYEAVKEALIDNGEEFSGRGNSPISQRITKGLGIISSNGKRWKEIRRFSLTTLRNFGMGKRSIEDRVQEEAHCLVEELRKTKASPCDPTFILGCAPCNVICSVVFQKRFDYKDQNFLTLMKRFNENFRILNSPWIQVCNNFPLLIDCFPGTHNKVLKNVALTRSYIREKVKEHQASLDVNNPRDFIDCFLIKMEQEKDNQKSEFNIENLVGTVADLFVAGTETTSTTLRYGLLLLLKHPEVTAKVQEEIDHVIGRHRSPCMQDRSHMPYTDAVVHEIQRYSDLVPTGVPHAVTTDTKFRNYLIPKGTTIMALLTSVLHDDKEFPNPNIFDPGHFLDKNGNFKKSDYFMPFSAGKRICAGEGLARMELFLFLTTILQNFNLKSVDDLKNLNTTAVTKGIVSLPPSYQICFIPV

CYP3A4 [13] = settings: human hepatocytes, 72 hr, 0.4-100 μM, any concentration tested
[14] = tested on: L-DOPA induced dyskinesias; experiment: L-DOPA induced dyskinesias, Rodent in vivo model
animal models = experiment: Toxicity in animal models; format: in vivo; settings: many animal models, even at high concentrations
From the text: Toxicity: The Compound 1 was studied for its toxicity in many animal models.

CD-1 mice [15] = experiment: Mice conditioned place preference (CPP) chamber test; format: in vivo; settings: Compound 1 10 mg/kg IP, 10 minutes later Morphine 10 mg/kg SC, versus Morphine alone; FIG. 1
hERG potassium channel = hERG potassium channel (Homo sapiens, UniProt Q12809); experiment: hERG Channel Inhibition (IC50 Determination), IonWorks automated patch clamp, CHO cells
Sequence of hERG potassium channel (Q12809 whole entry): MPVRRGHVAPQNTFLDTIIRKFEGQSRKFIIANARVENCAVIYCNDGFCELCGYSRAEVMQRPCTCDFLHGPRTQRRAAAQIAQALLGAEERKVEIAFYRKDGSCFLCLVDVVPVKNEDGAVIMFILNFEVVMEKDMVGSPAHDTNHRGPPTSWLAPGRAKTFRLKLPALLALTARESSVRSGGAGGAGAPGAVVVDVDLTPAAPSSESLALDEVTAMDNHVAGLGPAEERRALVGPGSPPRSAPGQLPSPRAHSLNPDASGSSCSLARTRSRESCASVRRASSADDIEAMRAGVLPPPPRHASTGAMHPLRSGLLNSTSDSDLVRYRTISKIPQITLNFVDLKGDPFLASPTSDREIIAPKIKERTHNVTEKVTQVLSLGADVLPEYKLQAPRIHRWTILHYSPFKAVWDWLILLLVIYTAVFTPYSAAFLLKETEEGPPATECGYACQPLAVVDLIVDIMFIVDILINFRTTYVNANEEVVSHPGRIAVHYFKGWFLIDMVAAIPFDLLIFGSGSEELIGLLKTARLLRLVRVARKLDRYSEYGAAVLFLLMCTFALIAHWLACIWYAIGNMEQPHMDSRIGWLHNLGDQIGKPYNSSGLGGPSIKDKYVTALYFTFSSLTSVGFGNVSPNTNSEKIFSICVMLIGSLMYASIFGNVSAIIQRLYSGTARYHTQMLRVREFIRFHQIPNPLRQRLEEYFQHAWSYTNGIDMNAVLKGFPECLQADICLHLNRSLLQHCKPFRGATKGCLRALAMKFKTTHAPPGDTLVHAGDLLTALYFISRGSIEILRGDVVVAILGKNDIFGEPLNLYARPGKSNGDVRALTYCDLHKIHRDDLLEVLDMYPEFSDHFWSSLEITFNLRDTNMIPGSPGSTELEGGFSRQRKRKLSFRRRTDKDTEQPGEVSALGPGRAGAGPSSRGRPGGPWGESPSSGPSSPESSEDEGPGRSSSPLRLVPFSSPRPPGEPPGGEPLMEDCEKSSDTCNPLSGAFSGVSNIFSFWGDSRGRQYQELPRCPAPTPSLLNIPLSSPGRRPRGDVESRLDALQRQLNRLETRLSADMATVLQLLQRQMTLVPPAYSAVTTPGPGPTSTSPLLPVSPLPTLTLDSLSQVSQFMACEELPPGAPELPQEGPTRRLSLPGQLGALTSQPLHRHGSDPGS

Caco-2 cells = experiment: Caco-2 Permeability (A-B or Bi-directional)
μ (MOP) (h) [16] = biological target: T2, μ (MOP) (h); format: binding
δ2 (DOP) (h) = δ2 (DOP) (h) (Homo sapiens, UniProt P41143); format: binding
Sequence of δ2 (DOP) (h) (P41143 whole entry): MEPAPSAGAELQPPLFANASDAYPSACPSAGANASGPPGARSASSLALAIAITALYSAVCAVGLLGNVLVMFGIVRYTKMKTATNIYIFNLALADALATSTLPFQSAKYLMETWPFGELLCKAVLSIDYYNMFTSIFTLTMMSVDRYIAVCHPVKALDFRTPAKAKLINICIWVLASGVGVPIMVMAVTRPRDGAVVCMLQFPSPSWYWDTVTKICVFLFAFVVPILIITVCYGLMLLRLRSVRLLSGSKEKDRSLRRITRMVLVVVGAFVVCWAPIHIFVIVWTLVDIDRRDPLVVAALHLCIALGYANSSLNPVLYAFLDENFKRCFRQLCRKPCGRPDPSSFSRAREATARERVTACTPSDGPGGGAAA

Sequence of κ (KOP) (P34975 whole entry): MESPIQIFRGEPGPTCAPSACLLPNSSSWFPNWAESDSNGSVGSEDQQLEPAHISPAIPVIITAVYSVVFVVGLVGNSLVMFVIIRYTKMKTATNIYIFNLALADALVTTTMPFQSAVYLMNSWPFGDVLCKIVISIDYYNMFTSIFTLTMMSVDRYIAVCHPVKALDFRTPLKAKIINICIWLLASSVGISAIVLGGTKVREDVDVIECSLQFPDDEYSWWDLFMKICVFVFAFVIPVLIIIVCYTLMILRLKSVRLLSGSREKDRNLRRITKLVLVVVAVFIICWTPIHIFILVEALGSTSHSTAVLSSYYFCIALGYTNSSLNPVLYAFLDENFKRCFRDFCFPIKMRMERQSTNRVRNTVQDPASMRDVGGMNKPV

O=C(CCCCCCCBr)NC1CCN(CCc2ccccc2)CC1 [8-bromo-N-(1-phenethylpiperidin-4-yl)octanamide]
nH (κ (KOP)): 0.5
nH (α2B(h)): 0.8
nH (μ (MOP) (h) [1]): 0.4

CCC(=O)NC1CCN(CCc2ccccc2)CC1 [Compound 1, N-(1-phenethylpiperidin-4-yl)propionamide]
analgesic property (tail flick, 52° C. water) (CD-1 mice [2]): almost identical analgesic property compared to morphine alone
inhibition of L-DOPA induced dyskinesias [3]: significant inhibition
CYP3A4 inhibition (testosterone) (CYP3A4 [4]): No significant inhibition
CYP1A2 inhibition (CYP1A2 [5]): No significant inhibition
CYP2B6 inhibition (CYP2B6 [6]): No significant inhibition
fraction unbound at 2 hr, 5 μM [7]: 0.249
CYP2B6 mRNA expression (CYP2B6 [8]): slight, yet statistically significant decrease
CYP3A4 inhibition (midazolam) (CYP3A4 [9]): No significant inhibition
permeability in the MDCK assay (MDR1-MDCK cells; 10 μM, pH 7.4, 60 min): highly permeable
efflux ratio (MDR1-MDCK cells): 1.48
binding in mouse [10]: no binding at all could be detected
binding to plasma proteins (plasma proteins): weak, or no noticeable binding
CYP2C9 inhibition (CYP2C9): No significant inhibition
IC50 (CYP2D6; 0 minute incubation): > 25 µM
time-dependent CYP2D6 inhibition (CYP2D6; IC50 shift, 30 min pre-incubation ± NADPH): no evidence of time-dependent CYP2D6 inhibition
CYP2D6 inhibition (CYP2D6; 0 minute incubation): approximately 40%
CYP2D6 inhibition (CYP2D6; 30 minute plus NADPH incubation): approximately 40%
CYP1A2 mRNA expression (CYP1A2 [11]): didn't cause a statistically significant change
bioavailability [12]: highly bioavailable
CYP2C8 inhibition (CYP2C8): No significant inhibition
CYP3A4 mRNA expression (CYP3A4 [13]): didn't cause a statistically significant change
inhibition of L-DOPA induced dyskinesias ([14]; Rodent in vivo model): significant inhibition
effectiveness versus amantadine against L-dopa-induced dyskinesia ([14]; comparison with amantadine, model not specified (Rodent and Primate models named)): significantly more effective than amantadine
toxicity (animal models): virtually no toxicity
time in chamber associated with morphine administration (CPP) (CD-1 mice [15]): significantly less time
IC50 (hERG potassium channel): > 25 µM
permeability in the Caco-2 assay (Caco-2 cells; 10 μM, pH gradient 6.8/7.4, 120 min): highly permeable in both directions
efflux ratio (Caco-2 cells; pH gradient (pH 6.8/7.4)): 2.70

CCC(=O)NC1CCN(CCC(=O)OC)CC1 [Methyl 3-(4-propionamidopiperidin-1-yl) propanoate]
nH (κ (KOP)): 0.8
nH (α2B(h)): 1
nH (μ (MOP) (h) [16]): 0.5

CCC(=O)NC1CCN(CCc2cccs2)CC1 [N-(1-(2-(thiophen-2-yl)ethyl)piperidin-4-yl)propionamide]
nH (δ2 (DOP) (h)): 0.9
nH (κ (KOP)): 0.6
nH (α2B(h)): 1.2
nH (μ (MOP) (h) [1]): 0.6

O=C(NC1CCN(CCc2ccccc2)CC1)c1ccccc1 [N-(1-phenethylpiperidin-4-yl)benzamide]
nH (δ2 (DOP) (h)): 0.7
nH (κ (KOP)): 0.6
nH (α2B(h)): 1.3
nH (μ (MOP) (h) [16]): 0.9

O=C(NC1CCN(CCc2ccccc2)CC1)c1ccco1 [N-(1-phenethylpiperidin-4-yl)furan-2-carboxamide]
nH (δ2 (DOP) (h)): 1
nH (κ (KOP)): 1.1
nH (α2B(h)): 0.7
nH (μ (MOP) (h) [16]): 0.8

O=C(NC1CCN(CCc2ccccc2)CC1)c1ccoc1 [N-(1-phenethylpiperidin-4-yl)furan-3-carboxamide]
nH (δ2 (DOP) (h)): 1
nH (κ (KOP)): 1.1
nH (α2B(h)): 0.7
nH (μ (MOP) (h) [16]): 0.8

COc1cc2nc(N3CCN(C(=O)c4ccco4)CC3)nc(N)c2cc1OC [prazosin, reference compound]
efflux ratio (MDR1-MDCK cells): showing efflux
